Earlier results, collected in patent US8591958B2, “Concentrated hydrogen peroxide disinfecting solutions” (priority 2008, dated 2013).
Where two headings read alike, the source gives them in different places.

System: Staphylococcus aureus

**Q.** Which results are given for OO [hydrogen peroxide]?
**A.** time required to disinfect surfaces contaminated with Staphylococcus aureus (0.1% w/w aqueous solution): about 60 minutes; time required to disinfect surfaces contaminated with Staphylococcus aureus (25.8% w/w aqueous solution, same test conditions): about 20 seconds
